Reference: the supplement of paper PMC4862054
“And” between values parts separate entries of the source, which are not always exact repeats. Identical values can stand only once.

Key:
Conditions in all cases: incubation time: 72 h
[1] = test system: CAL-148; test: drug sensitivity score (DSS), CellTox Green (DSS (AUC-based score)); higher = stronger drug effect (viability inhibition or cytotoxicity); extreme values may be limits of the assay
Procedure, shortened: (§1)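 The drug sensitivity score was computed from the area under the fitted dose-response curve. Breast cancer cell lines in 20 µl suspension went into 384-well plates holding compound at 5 concentrations (10-fold steps over a 10,000-fold, compound-specific range) for 72 h of incubation. CellTox Green fluorescence (485/520 nm) was read before CellTiter-Glo luminescence, the latter after 10 min at room temperature, and each plate was normalised to 0.1 % DMSO and a positive kill control.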

[2] = test system: MDA-MB-453; test: as above
Procedure, shortened: as §1

[3] = test system: CAL-51; test: as above
Procedure, shortened: as §1

[4] = test system: BT-549; test: as above
Procedure, shortened: as §1

[5] = test system: MCF-10A; test: as above
Procedure, shortened: as §1

[6] = test system: MDA-MB-468; test: as above
Procedure, shortened: as §1

[7] = test system: HDQ-P1; test: as above
Procedure, shortened: as §1

[8] = test system: HCC1937; test: as above
Procedure, shortened: as §1

[9] = test system: BT-474; test: drug sensitivity score (DSS), CellTiter-Blue viability (DSS (AUC-based score)); higher = stronger viability inhibition; extreme values may be limits of the assay
Method: (§2)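 DSRT with the CellTiter-Blue (resazurin reduction) viability readout, fluorescence 560/590 nm, 72 h incubation. Plates were normalised to DMSO and benzethonium chloride controls. DSS is computed from the area under the fitted dose-response curve (5 or 9 concentrations).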

[10] = test system: CAL-148; test: as above
Method: as §2

[11] = test system: MDA-MB-453; test: as above
Method: as §2

[12] = test system: MDA-MB-436; test: as above
Method: as §2

[13] = test system: CAL-51; test: as above
Method: as §2

[14] = test system: BT-549; test: as above
Method: as §2

[15] = test system: HCC1599; test: as above
Method: as §2

[16] = test system: MDA-MB-468; test: as above
Method: as §2

[17] = test system: CAL-85-1; test: as above
Method: as §2

[18] = test system: MFM-223; test: as above
Method: as §2

[19] = test system: CAL-120; test: as above
Method: as §2

[20] = test system: MDA-MB-231; test: as above
Method: as §2

[21] = test system: DU-4475; test: as above
Method: as §2

[22] = test system: Hs578T; test: as above
Method: as §2

[23] = test system: HCC1143; test: as above
Method: as §2

[24] = test system: HDQ-P1; test: as above
Method: as §2

[25] = test system: SK-BR-3; test: as above
Method: as §2

[26] = test system: HCC1937; test: as above
Method: as §2

SMILES	drug sensitivity score [1]	drug sensitivity score [2]	drug sensitivity score [3]	drug sensitivity score [4]	drug sensitivity score [5]	drug sensitivity score [6]	drug sensitivity score [7]	drug sensitivity score [8]	drug sensitivity score [9]	drug sensitivity score [10]	drug sensitivity score [11]	drug sensitivity score [12]	drug sensitivity score [13]	drug sensitivity score [14]	drug sensitivity score [15]	drug sensitivity score [16]	drug sensitivity score [17]	drug sensitivity score [18]	drug sensitivity score [19]	drug sensitivity score [20]	drug sensitivity score [21]	drug sensitivity score [22]	drug sensitivity score [23]	drug sensitivity score [24]	drug sensitivity score [25]	drug sensitivity score [26]
COc1cc(CCc2cc(NC(=O)c3ccc(N4CC(C)NC(C)C4)cc3)n[nH]2)cc(OC)c1 (configuration not stated) [AZD4547]	0.783	0	0	0	0	0	2.76	0	0	2.37	5.67	0	2.97	0	6.62	0	3.12	15.1	0	0	3.06	0	0	0	0	0
c1cc(CN2CCCNCCNCCCNCC2)ccc1CN1CCCNCCNCCCNCC1 [Plerixafor]	0	0	0	0	0	4.79	0	0	0	0	0	0	0	0	0	0	0	0	0	0	0	0	0	0	0	0
Cc1ccc(Nc2nccc(N(C)c3ccc4c(C)n(C)nc4c3)n2)cc1S(N)(=O)=O [Pazopanib]	0	0	0	0	0	0	0	0	0	0	6.67	4.09	0	3.13	0	0	0	11.6	0	0	0	0	0	1.38	0	0
O=C(CCBr)N1CCN(C(=O)CCBr)CC1 [Pipobroman]	0	0	0	0	0	0	0	0	0	0	2.49	0	0	0	0	0	0	3.19	0	0	0	0	0	0	0	0
COc1nc(N)nc2c1ncn2[C@@H]1O[C@H](CO)[C@@H](O)[C@@H]1O [Nelarabine]	0	0	0	0.855	0	0	0	0	0	0	0	0	0	0	0	0	0	0	0	0	0	0	0	0	0	0
Cc1nc(Nc2ncc(C(=O)Nc3c(C)cccc3Cl)s2)cc(N2CCN(CCO)CC2)n1 [Dasatinib]	0	0	6.25	2.37	7.15	0	0	0	0	0	0	7.53 and 9.46	12.4 and 11.1	8.07 and 9.99	0	0	8.12 and 9	2.5 and 1.76	11.2 and 13.7	9.89 and 15.2	0	10.6 and 12.3	6.83 and 7.93	19.3 and 21.9	0	0
Nc1cccc2c1CN(C1CCC(=O)NC1=O)C2=O (configuration not stated) [Lenalidomide]	1.27	0	0	0	0	0	0	0	0	0	0	0	0	0	0	0	0	0	0	0	0	0	0	0	0	0
